This assay concerns the target Macrophage metalloelastase (Homo sapiens, UniProt P39900). Put plainly: MMP Inhibitory Assays. On the procedure:
The inhibitory effect of compounds on the rate of cleaving fluorogenic MMP substrate (Enzo, BML-P128) by recombinant human MMP-12 catalytic domain (Enzo, BML-SE138) was carried out by methods known in the art. Briefly, to each well of a 96-well black opaque plate, all the reagents were sequentially added by pipetting, and the final reaction contained 4 nM of recombinant human MMP-12 catalytic domain, […] MMP substrate, and various concentrations (0.15 nM to 10,000 nM) of tested compound dilutions in HEPES buffer (pH 7.5) containing 10 mM of CaCl2, 0.01% Brij 35 (polyoxyethylene (23) lauryl ether), and 0.1 mg/ml of BSA. The enzyme and compounds were pre-incubated on a shaker to mix in wells. After an hour of mixing, fluorogenic substrate was added to each well. Reaction without enzyme was used as a blank control in the plate. The plate was then fed into a plate reader to measure fluorescence intensity at Excitation/Emission wavelengths of 340 nm/440 nm every 10 mins for at least 1 hour at 37° C. The IC50 of each compound in MMP-12 inhibition was determined by using a readout obtained at time point 30 minutes.

Macrophage metalloelastase, sequence (P39900 whole entry, the tested form may be a part): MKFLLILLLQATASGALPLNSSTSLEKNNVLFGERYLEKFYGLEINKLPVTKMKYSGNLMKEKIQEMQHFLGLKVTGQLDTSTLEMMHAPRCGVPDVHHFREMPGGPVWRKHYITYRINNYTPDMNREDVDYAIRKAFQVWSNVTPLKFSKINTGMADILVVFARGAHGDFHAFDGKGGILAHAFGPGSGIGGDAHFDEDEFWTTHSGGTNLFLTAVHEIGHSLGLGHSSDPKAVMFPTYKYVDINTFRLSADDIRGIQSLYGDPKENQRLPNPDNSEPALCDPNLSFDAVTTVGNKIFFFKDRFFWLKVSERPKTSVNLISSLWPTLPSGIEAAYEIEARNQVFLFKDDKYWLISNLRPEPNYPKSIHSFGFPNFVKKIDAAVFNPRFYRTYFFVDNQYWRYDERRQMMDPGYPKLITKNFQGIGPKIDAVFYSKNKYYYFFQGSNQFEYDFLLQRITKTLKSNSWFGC

One may read the IC50 as the concentration needed to halve the response being measured. A higher IC50 goes with weaker potency in that assay. Compound `Cc1cccc(COc2ccc(Sc3ocnc3C3NC(=O)NC3=O)cc2)c1` (configuration not stated) [US20250115590, Compound OC-8] came in with an IC50 of over 1000 nM.
To `O=C1NC(=O)C(c2ncoc2Sc2ccc(OCc3cccc(CO)c3)cc2)N1` (configuration not stated) [US20250115590, Compound OC-9] belongs over 1000 nM.

The values above are taken from BindingDB's records for patent US20250115590 (Foresee Pharmaceuticals USA, 2025).
